Measured values taken from patent publication US20250108051A1, “THERAPEUTIC AGENT FOR CANCER” (TOHOKU UNIVERSITY, priority 2022, published 2025).
Where two headings read alike, the source gives them in different places.

Tests used:
Type in all cases: cell-based
[1] = system: WiDR (BRAF V600E-mutated colorectal cancer cell line); assay: MTT assay, encorafenib + binimetinib with retinoid; details: Test Example 6; concentration-dependent
Protocol: (§1) RKO cells were seeded on a 96-well plate with the number of cells of 1.5×10^3 cells/well, CO115 cells were seeded on a 96-well plate with the number of cells of 2.5×10^3 cells/well, and HT29 cells and WiDR cells were respectively seeded on 96-well plates with the number of cells of 6×10^3 cells/well. After incubation for about 24 hours until the cell density reached 40% to 60%, the drug was administered. After incubation at 37° C. for 72 hours, the MTT assay was performed using Cell Counting Kit-8 (Dojindo Laboratories, Kumamoto, Japan). To each well was added 10 μl of Cell Counting Kit-8 solution, the plates were placed in a culture vessel at 5% CO2 and 37° C. for 120 minutes to perform a color reaction, and then the absorbance at 450 nm was measured and evaluated with a microplate reader SpectraMax M2e (Molecular Devices, Sunnyvale, CA, USA). Cells administered with 0.1% DMSO were used as a control. The above was performed three or more times as independent experiments.
(§2) In various kinds of colorectal cancer cell lines, the inhibition effect of a BRAF inhibitor (encorafenib) and an MEK inhibitor (binimetinib) for the viability of cells and the enhancement by ATRA were examined. […] The horizontal axis indicates component concentrations of encorafenib and binimetinib in a range of 0 μM to 10 μM, and the vertical axis indicates the cell viability when 0 μM, 1.0 μM, or 10 μM (each bar graph) of ATRA was administered. As shown in the drawing, encorafenib and binimetinib were used in an equal molar concentration.
(§3) As the compounds for acting on a retinoid receptor, retinol, tamibarotene, and bexarotene among the retinoids were used. As the cell lines, the colorectal cancer cell lines including RKO, HT29, CO115, WiDR, COLO205, and LIM2405 described above were used. As the BRAF inhibitor and the MEK inhibitor to be used in combination, a component (EB) obtained by mixing encorafenib and binimetinib in equal amounts was used as in Test Example 2.

COLO205 cell line = assay: MTT assay, encorafenib + binimetinib with retinoid; details: Test Example 6; concentration-dependent
Protocol: as §1, §3

LIM2405 cell line = assay: MTT assay, encorafenib + binimetinib with retinoid; details: Test Example 6; concentration-dependent
Protocol: as §1, §3

[2] = system: HT29 (BRAF V600E-mutated colorectal cancer cell line); assay: MTT assay, encorafenib + binimetinib with retinoid
Protocol: as §1, §2
as §3, with “acting and” for “acting”, “tamibarotene,” for “tamibarotene, and”, “above-described” for “colorectal cancer”, “HT29,” for “HT29, CO115, WiDR, COLO205,”, “CO115” for “LIM2405 described above”
as §3

[3] = system: RKO (BRAF V600E-mutated colorectal cancer cell line); assay: MTT assay, encorafenib + binimetinib with retinoid
Protocol: as §1, §2
as §3, with “acting and” for “acting”, “tamibarotene,” for “tamibarotene, and”, “above-described” for “colorectal cancer”, “HT29,” for “HT29, CO115, WiDR, COLO205,”, “CO115” for “LIM2405 described above”
as §3

[4] = system: CO115 (BRAF V600E-mutated colorectal cancer cell line); assay: MTT assay, encorafenib + binimetinib with retinoid
Protocol: as §1, §2
as §3, with “acting and” for “acting”, “tamibarotene,” for “tamibarotene, and”, “above-described” for “colorectal cancer”, “HT29,” for “HT29, CO115, WiDR, COLO205,”, “CO115” for “LIM2405 described above”
as §3

[5] = system: RKO cells, encorafenib/cetuximab resistant strain; assay: Viability of encorafenib/cetuximab resistant strain with encorafenib and ATRA; details: for IC50: Homo sapiens, RKO, Resistant Strain, read-out: IC50 (50% inhibition concentration)
Protocol: Encorafenib/cetuximab resistant strains were constructed, and the inhibitor enhancing effect of ATRA was examined for the resistant strains.
For the construction of the resistant strains, the above-described RKO cells were seeded in 15 mm dishes and a group in which the BRAF inhibitor Encorafenib and an anti-EGFR antibody Cetuximab were administered and a group in which the BRAF inhibitor Encorafenib, the MEK inhibitor Binimetinib, and the anti-EGFR antibody Cetuximab were administered were prepared.
The vertical axis represents the viability (ratio), and the horizontal axis represents the administration amount of encorafenib.

[6] = system: RKO cells, sensitive strain; assay: Viability of sensitive strain with encorafenib and ATRA; details: for IC50: Homo sapiens, RKO, Sensitive Strain, read-out: IC50 (50% inhibition concentration)
[7] = Test Example 3, EB 0.01 μM, retinol, tamibarotene or bexarotene 1 μM
[8] = Test Example 6, concentration-dependent, smaller concentrations than Test Example 3
[9] = Test Example 3, EB 0.1 μM, retinol 30 μM, tamibarotene 10 μM or bexarotene 10 μM
[10] = Test Example 3, EB 0.1 μM, retinol 30 μM or tamibarotene 30 μM

Row | SMILES | cell viability on further adding a retinoid to EB [1] | cell viability on further adding a retinoid to EB (COLO205 cell line) | cell viability on further adding a retinoid to EB (LIM2405 cell line) | cell viability on further adding a retinoid to EB [2, 7] | cell viability on further adding a retinoid to EB [2, 8] | cell viability on further adding a retinoid to EB [3, 9] | cell viability on further adding a retinoid to EB [3, 8] | cell viability on further adding a retinoid to EB [4, 8] | IC50 ([5]; ATRA 0 μM) | IC50 ([5]; ATRA 1 μM) | viability (ratio) ([5]; resistant strain (R), ATRA 1 μM) | IC50 ([6]; ATRA 0 μM) | IC50 ([6]; ATRA 1 μM) | viability (ratio) ([6]; sensitive strain (S), ATRA 1 μM, encorafenib 0 to 10 μM) | viability (ratio) ([6]; sensitive strain, ATRA not administered) | cell viability on further adding a retinoid to EB [4, 10]
1 | C=C(c1ccc(C(=O)O)cc1)c1cc2c(cc1C)C(C)(C)CCC2(C)C [bexarotene] | greatly decreased | greatly decreased | greatly decreased | greatly reduced | greatly decreased | greatly reduced | greatly decreased | greatly decreased |  |  |  |  |  |  |  | 
2 | COC(=O)N[C@@H](C)CNc1nccc(-c2cn(C(C)C)nc2-c2cc(Cl)cc(NS(C)(=O)=O)c2F)n1 [encorafenib] |  |  |  |  |  |  |  |  | > 10000 nM | 1580 nM | around 0.3 | 1230 nM | 4.6 nM | around 0.1 | around 0.3 | 
3 | CC1=C(/C=C/C(C)=C/C=C/C(C)=C/CO)C(C)(C)CCC1 [retinol] | greatly decreased | greatly decreased | greatly decreased | greatly reduced | greatly decreased | greatly reduced | greatly decreased | greatly decreased |  |  |  |  |  |  |  | greatly reduced
4 | CC1(C)CCC(C)(C)c2cc(NC(=O)c3ccc(C(=O)O)cc3)ccc21 [tamibarotene] | greatly decreased | greatly decreased | greatly decreased | greatly reduced | greatly decreased | greatly reduced | greatly decreased | greatly decreased |  |  |  |  |  |  |  | greatly reduced
